Columns and labels:
Assay in all cases: relative viability (nuclei count vs DMSO), 5 days (fraction); higher = more cells survive
AGI-6780 + Alpelisib = compound: O=C(Nc1cccc(C(F)(F)F)c1)Nc1cc(S(=O)(=O)NC2CC2)ccc1-c1ccsc1 [AGI-6780] + Cc1nc(NC(=O)N2CCC[C@H]2C(N)=O)sc1-c1ccnc(C(C)(C)C(F)(F)F)c1 [Alpelisib] (partner 2 µM)
Outline: (§1)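 For relative viability, nuclei counts in treated wells were divided by those in vehicle wells. Lung cancer cell lines had been pin-tool dosed in 1536-well plates the day after seeding and cultured for 5 days, then fixed and stained in one step (final 0.05% Triton X-100, 1% formaldehyde, 1 ug/ml Hoechst) and imaged at 4×. Doses were one drug alone or a fixed anchor-drug dose plus five library-drug doses (not always all listed) in √10 steps, and values are duplicate-plate medians.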

AGI-6780 + Luminespib = compound: O=C(Nc1cccc(C(F)(F)F)c1)Nc1cc(S(=O)(=O)NC2CC2)ccc1-c1ccsc1 [AGI-6780] + CCNC(=O)c1noc(-c2cc(C(C)C)c(O)cc2O)c1-c1ccc(CN2CCOCC2)cc1 [Luminespib] (partner 0.01 µM)
Outline: as §1

AGI-6780 + Tozasertib = compound: O=C(Nc1cccc(C(F)(F)F)c1)Nc1cc(S(=O)(=O)NC2CC2)ccc1-c1ccsc1 [AGI-6780] + Cc1cc(Nc2cc(N3CCN(C)CC3)nc(Sc3ccc(NC(=O)C4CC4)cc3)n2)n[nH]1 [Tozasertib] (partner 0.1 µM)
Outline: as §1

AGI-6780 + Dasatinib = compound: O=C(Nc1cccc(C(F)(F)F)c1)Nc1cc(S(=O)(=O)NC2CC2)ccc1-c1ccsc1 [AGI-6780] + Cc1nc(Nc2ncc(C(=O)Nc3c(C)cccc3Cl)s2)cc(N2CCN(CCO)CC2)n1 [Dasatinib] (partner 0.075 µM)
Outline: as §1

| Cell Line | relative viability (AGI-6780 + Alpelisib; first compound 0.08 µM) | relative viability (AGI-6780 + Alpelisib; first compound 0.253 µM) | relative viability (AGI-6780 + Alpelisib; first compound 0.8 µM) | relative viability (AGI-6780 + Alpelisib; first compound 2.53 µM) | relative viability (AGI-6780 + Alpelisib; first compound 8 µM) | relative viability (AGI-6780 + Luminespib; first compound 0.08 µM) | relative viability (AGI-6780 + Luminespib; first compound 0.253 µM) | relative viability (AGI-6780 + Luminespib; first compound 0.8 µM) | relative viability (AGI-6780 + Luminespib; first compound 2.53 µM) | relative viability (AGI-6780 + Luminespib; first compound 8 µM) | relative viability (AGI-6780 + Tozasertib; first compound 0.08 µM) | relative viability (AGI-6780 + Tozasertib; first compound 0.253 µM) | relative viability (AGI-6780 + Tozasertib; first compound 0.8 µM) | relative viability (AGI-6780 + Tozasertib; first compound 2.53 µM) | relative viability (AGI-6780 + Tozasertib; first compound 8 µM) | relative viability (AGI-6780 + Dasatinib; first compound 0.08 µM) | relative viability (AGI-6780 + Dasatinib; first compound 0.253 µM) | relative viability (AGI-6780 + Dasatinib; first compound 0.8 µM) | relative viability (AGI-6780 + Dasatinib; first compound 2.53 µM) | relative viability (AGI-6780 + Dasatinib; first compound 8 µM) |
| --- | --- | --- | --- | --- | --- | --- | --- | --- | --- | --- | --- | --- | --- | --- | --- | --- | --- | --- | --- | --- |
| NCI-H2023 | 0.674 | 0.595 | 0.596 | 0.447 | 0.617 | 0.877 | 0.688 | 0.602 | 0.553 | 0.686 | 0.329 | 0.48 | 0.358 | 0.212 | 0.25 | 0.591 | 0.624 | 0.617 | 0.507 | 0.529 |
| NCI-H2085 | 0.965 | 0.978 | 0.976 | 0.949 | 0.885 | 0.409 | 0.457 | 0.482 | 0.347 | 0.39 | 0.755 | 0.736 | 0.779 | 0.809 | 0.61 | 0.272 | 0.255 | 0.276 | 0.24 | 0.243 |
| NCI-H2087 | 1.17 | 1.1 | 1.15 | 0.983 | 1.14 | 0.203 | 0.141 | 0.181 | 0.155 | 0.175 | 0.288 | 0.213 | 0.224 | 0.27 | 0.284 | 0.843 | 0.866 | 0.888 | 0.852 | 0.838 |
| NCI-H2126 | 0.812 | 0.72 | 0.767 | 0.696 | 0.741 | 0.984 | 0.843 | 0.95 | 0.9 | 0.856 | 0.82 | 0.838 | 0.89 | 0.726 | 0.857 | 0.632 | 0.657 | 0.566 | 0.381 | 0.586 |
| NCI-H2170 | 0.813 | 0.838 | 0.86 |  | 0.772 | 0.603 | 0.729 | 0.682 | 0.403 | 0.719 | 0.687 | 0.752 | 0.665 | 0.546 | 0.814 | 0.585 | 0.713 | 0.579 | 0.499 | 0.59 |
| NCI-H2228 | 0.904 | 0.831 | 0.563 | 0.618 | 0.635 | 0.128 | 0.15 | 0.148 | 0.114 | 0.113 | 0.281 | 0.278 | 0.228 | 0.226 | 0.201 | 0.528 | 0.555 | 0.468 | 0.381 | 0.545 |
| NCI-H2347 | 1 | 0.954 | 0.691 | 1 | 1.13 | 0.456 | 0.659 | 0.405 | 0.411 | 0.403 | 0.596 | 0.644 | 0.518 | 0.373 | 0.644 | 0.323 | 0.342 | 0.276 | 0.307 | 0.317 |
| NCI-H2405 | 0.895 | 0.824 | 0.506 |  | 0.767 | 0.686 | 0.718 | 0.5 | 0.515 | 0.65 | 0.813 | 0.728 | 0.565 | 0.766 | 0.661 | 0.217 | 0.205 | 0.188 | 0.194 | 0.203 |

Source: the supplement of paper PMC10307832
